Experimental data published in the supplement of paper PMC10307832.

Assays:
Experiment in all cases: relative viability (nuclei count vs DMSO), 5 days (fraction); higher = more cells survive
[1] = compound: C1=CC=C(C(=C1)C2=CC=C(C=C2)C3=CSC4=C3C(=C(C(=O)N4)C#N)O)O + CC(=O)c1c(C)c2cnc(Nc3ccc(N4CCNCC4)cn3)nc2n(C2CCCC2)c1=O [Palbociclib] (partner 0.5 µM)
Method in brief: (§1)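 Relative viability divides the nuclei count in treated wells by that in vehicle wells. Lung cancer cell lines were seeded in 1536-well plates, dosed by pin tool the next day, and fixed and stained after 5 days in one step with final 0.05% Triton X-100, 1% formaldehyde and 1 ug/ml Hoechst. Dosing was a single drug or a fixed anchor-drug dose plus five library-drug doses (not always all listed) in √10 steps, and values are medians of duplicate plates imaged at 4×.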

[2] = compound: C1=CC=C(C(=C1)C2=CC=C(C=C2)C3=CSC4=C3C(=C(C(=O)N4)C#N)O)O + CS(=O)(=O)N1CCN(Cc2cc3nc(-c4cccc5[nH]ncc45)nc(N4CCOCC4)c3s2)CC1 [Pictilisib] (partner 1 µM)
Method in brief: as §1

TGX 221 + Olaparib = compound: CC1=CN2C(=O)C=C(N=C2C(=C1)C(C)NC3=CC=CC=C3)N4CCOCC4 [TGX 221] + O=C(c1cc(Cc2n[nH]c(=O)c3ccccc23)ccc1F)N1CCN(C(=O)C2CC2)CC1 [Olaparib] (partner 8 µM)
Method in brief: as §1

TGX 221 + Lapatinib = compound: CC1=CN2C(=O)C=C(N=C2C(=C1)C(C)NC3=CC=CC=C3)N4CCOCC4 [TGX 221] + CS(=O)(=O)CCNCc1ccc(-c2ccc3ncnc(Nc4ccc(OCc5cccc(F)c5)c(Cl)c4)c3c2)o1 [Lapatinib] (partner 2 µM)
Method in brief: as §1

Cell Line	relative viability ([1]; first compound 0.08 µM)	relative viability ([1]; first compound 0.253 µM)	relative viability ([1]; first compound 0.8 µM)	relative viability ([1]; first compound 2.53 µM)	relative viability ([1]; first compound 8 µM)	relative viability ([2]; first compound 0.08 µM)	relative viability ([2]; first compound 0.253 µM)	relative viability ([2]; first compound 0.8 µM)	relative viability ([2]; first compound 2.53 µM)	relative viability ([2]; first compound 8 µM)	relative viability (TGX 221 + Olaparib; first compound 0.08 µM)	relative viability (TGX 221 + Olaparib; first compound 0.253 µM)	relative viability (TGX 221 + Olaparib; first compound 0.8 µM)	relative viability (TGX 221 + Olaparib; first compound 2.53 µM)	relative viability (TGX 221 + Olaparib; first compound 8 µM)	relative viability (TGX 221 + Lapatinib; first compound 0.08 µM)	relative viability (TGX 221 + Lapatinib; first compound 0.253 µM)	relative viability (TGX 221 + Lapatinib; first compound 0.8 µM)	relative viability (TGX 221 + Lapatinib; first compound 2.53 µM)	relative viability (TGX 221 + Lapatinib; first compound 8 µM)
NCI-H2085	0.468	0.573	0.435	0.49	0.472	0.414	0.517	0.528	0.418	0.399	0.802	0.75	0.684	0.536	0.439	0.666	0.644	0.681	0.469	0.462
NCI-H2087	0.223	0.228	0.199	0.256	0.205	0.783	0.892	0.956	0.848	0.772	0.646	0.66	0.501	0.683	0.598	1.09	0.912	1.13	0.985	1.11
NCI-H2126	0.377	0.347	0.337	0.333	0.394	0.455	0.498	0.478	0.515	0.503	0.927	0.885	0.886	0.813	0.871	0.61	0.752	0.667	0.616	0.717
NCI-H2170	0.349	0.407	0.404	0.434	0.329	0.337	0.304	0.273	0.3	0.358	0.625	0.522	0.625	0.526	0.608	0.285	0.26	0.264	0.276	0.265
NCI-H2228	0.687	0.6	0.747	0.759	0.6	0.326	0.4	0.479	0.365	0.344	0.557	0.529	0.471	0.532	0.541	0.948	1.46	0.909	0.759	0.751
NCI-H2347	0.46	0.429	0.361	0.442	0.423	0.624	0.609	0.496	0.626	0.454	0.592	0.563	0.521	0.528	0.457	0.945	0.908	0.976	0.996	0.915
NCI-H2405	0.476	–	0.516	0.513	0.531	0.379	0.439	0.443	0.436	0.295	0.803	0.886	0.858	0.801	0.75	0.836	1.02	0.971	1.02	0.901
NCI-H3122	0.203	0.214	0.186	0.21	0.231	0.6	0.666	0.676	0.682	0.662	0.596	0.625	0.596	0.562	0.643	1.01	0.994	1.02	1.01	0.985
